Data from PubChem BioAssay (NCI).
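A five-concentration, 48-hour dose response in 96-well plates underlies each endpoint, interpolated linearly between surrounding concentrations. TGI is the concentration that stops growth completely.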

Legend:
Experiment in all cases: NCI-60 cell line screen, 48 h
KM20L2 colon = system: KM20L2 colon
SF-268 CNS = system: SF-268 CNS
A498 renal = system: A498 renal
SW-620 colon = system: SW-620 colon
UACC-62 melanoma = system: UACC-62 melanoma
OVCAR-3 ovarian = system: OVCAR-3 ovarian
DMS 114 small cell lung = system: DMS 114 small cell lung
RPMI-8226 leukemia = system: RPMI-8226 leukemia
SN12C renal = system: SN12C renal
UO-31 renal = system: UO-31 renal
786-0 renal = system: 786-0 renal
SK-MEL-5 melanoma = system: SK-MEL-5 melanoma
TK-10 renal = system: TK-10 renal
IGROV1 ovarian = system: IGROV1 ovarian
SF-295 CNS = system: SF-295 CNS
OVCAR-8 ovarian = system: OVCAR-8 ovarian
U251 CNS = system: U251 CNS
A549 NSCLC = system: A549 NSCLC
DLD-1 colon = system: DLD-1 colon
SK-MEL-2 melanoma = system: SK-MEL-2 melanoma
HL-60(TB) leukemia = system: HL-60(TB) leukemia
HCT-15 colon = system: HCT-15 colon
SNB-19 CNS = system: SNB-19 CNS
MOLT-4 leukemia = system: MOLT-4 leukemia
HCT-116 colon = system: HCT-116 colon
NCI-H226 lung = system: NCI-H226 lung
SK-MEL-28 melanoma = system: SK-MEL-28 melanoma
HOP-62 NSCLC = system: HOP-62 NSCLC
OVCAR-4 ovarian = system: OVCAR-4 ovarian
M14 melanoma = system: M14 melanoma
RXF 393 renal = system: RXF 393 renal
XF 498 CNS = system: XF 498 CNS
K-562 leukemia = system: K-562 leukemia
SNB-75 CNS = system: SNB-75 CNS
LXFL 529 NSCLC = system: LXFL 529 NSCLC
DMS 273 small cell lung = system: DMS 273 small cell lung
HCC-2998 colon = system: HCC-2998 colon
EKVX NSCLC = system: EKVX NSCLC
SF-539 CNS = system: SF-539 CNS
COLO 205 colon = system: COLO 205 colon
HT29 colon = system: HT29 colon
UACC-257 melanoma = system: UACC-257 melanoma
NCI-H23 lung = system: NCI-H23 lung
CCRF-CEM leukemia = system: CCRF-CEM leukemia
ACHN renal = system: ACHN renal
NCI-H460 lung = system: NCI-H460 lung
LOX IMVI melanoma = system: LOX IMVI melanoma
MALME-3M melanoma = system: MALME-3M melanoma
SR leukemia = system: SR leukemia
M19-MEL melanoma = system: M19-MEL melanoma
SNB-78 CNS = system: SNB-78 CNS
HOP-92 NSCLC = system: HOP-92 NSCLC
NCI-H522 lung = system: NCI-H522 lung
KM12 colon = system: KM12 colon
SK-OV-3 ovarian = system: SK-OV-3 ovarian
OVCAR-5 ovarian = system: OVCAR-5 ovarian
CAKI-1 renal = system: CAKI-1 renal

Compound: COC(=O)CC(C(C(=O)OCc1ccccc1)C(C)O)N1C(=O)OCC1c1ccccc1 (stereo not drawn)
- TGI (KM20L2 colon): > 100 µM
- TGI (SF-268 CNS): > 100 µM
- TGI (A498 renal): > 100 µM
- TGI (SW-620 colon): > 100 µM
- TGI (UACC-62 melanoma): > 100 µM
- TGI (OVCAR-3 ovarian): > 100 µM
- TGI (DMS 114 small cell lung): > 100 µM
- TGI (RPMI-8226 leukemia): > 100 µM
- TGI (SN12C renal): > 100 µM
- TGI (UO-31 renal): 90.6 µM
- TGI (786-0 renal): > 100 µM
- TGI (SK-MEL-5 melanoma): > 100 µM
- TGI (TK-10 renal): > 100 µM
- TGI (IGROV1 ovarian): > 100 µM
- TGI (SF-295 CNS): > 100 µM
- TGI (OVCAR-8 ovarian): > 100 µM
- TGI (U251 CNS): > 100 µM
- TGI (A549 NSCLC): > 100 µM
- TGI (DLD-1 colon): > 100 µM
- TGI (SK-MEL-2 melanoma): > 100 µM
- TGI (HL-60(TB) leukemia): > 100 µM
- TGI (HCT-15 colon): > 100 µM
- TGI (SNB-19 CNS): > 100 µM
- TGI (MOLT-4 leukemia): > 100 µM
- TGI (HCT-116 colon): > 100 µM
- TGI (NCI-H226 lung): > 100 µM
- TGI (SK-MEL-28 melanoma): > 100 µM
- TGI (HOP-62 NSCLC): > 100 µM
- TGI (OVCAR-4 ovarian): > 100 µM
- TGI (M14 melanoma): > 100 µM
- TGI (RXF 393 renal): > 100 µM
- TGI (XF 498 CNS): > 100 µM
- TGI (K-562 leukemia): > 100 µM
- TGI (SNB-75 CNS): 89.8 µM
- TGI (LXFL 529 NSCLC): > 100 µM
- TGI (DMS 273 small cell lung): > 100 µM
- TGI (HCC-2998 colon): > 100 µM
- TGI (EKVX NSCLC): > 100 µM
- TGI (SF-539 CNS): > 100 µM
- TGI (COLO 205 colon): > 100 µM
- TGI (HT29 colon): > 100 µM
- TGI (UACC-257 melanoma): > 100 µM
- TGI (NCI-H23 lung): > 100 µM
- TGI (CCRF-CEM leukemia): > 100 µM
- TGI (ACHN renal): > 100 µM
- TGI (NCI-H460 lung): > 100 µM
- TGI (LOX IMVI melanoma): > 100 µM
- TGI (MALME-3M melanoma): > 100 µM
- TGI (SR leukemia): > 100 µM
- TGI (M19-MEL melanoma): > 100 µM

Compound: Cc1ccccc1SC(/C=C/NNC1=NC(c2ccccc2)C(c2ccccc2)=NN1)c1ccccc1 (stereo not drawn)
- TGI (KM20L2 colon): > 100 µM
- TGI (SNB-78 CNS): 73.9 µM
- TGI (SF-268 CNS): 58.7 µM
- TGI (A498 renal): 64.2 µM
- TGI (SW-620 colon): > 100 µM
- TGI (UACC-62 melanoma): > 100 µM
- TGI (OVCAR-3 ovarian): 31.7 µM
- TGI (DMS 114 small cell lung): 78.4 µM
- TGI (RPMI-8226 leukemia): > 100 µM
- TGI (SN12C renal): > 100 µM
- TGI (UO-31 renal): 48.6 µM
- TGI (786-0 renal): 25.9 µM
- TGI (SK-MEL-5 melanoma): > 100 µM
- TGI (TK-10 renal): 43.2 µM
- TGI (IGROV1 ovarian): 80.2 µM
- TGI (SF-295 CNS): 57.7 µM
- TGI (HOP-92 NSCLC): 27.7 µM
- TGI (OVCAR-8 ovarian): 40 µM
- TGI (NCI-H522 lung): > 100 µM
- TGI (U251 CNS): 64.7 µM
- TGI (A549 NSCLC): 46.7 µM
- TGI (DLD-1 colon): > 100 µM
- TGI (SK-MEL-2 melanoma): 45.3 µM
- TGI (HCT-15 colon): > 100 µM
- TGI (SNB-19 CNS): > 100 µM
- TGI (MOLT-4 leukemia): > 100 µM
- TGI (KM12 colon): > 100 µM
- TGI (NCI-H226 lung): 52 µM
- TGI (SK-MEL-28 melanoma): 43 µM
- TGI (HOP-62 NSCLC): 49.4 µM
- TGI (SK-OV-3 ovarian): 45.3 µM
- TGI (OVCAR-4 ovarian): 9.16 µM
- TGI (M14 melanoma): 87.6 µM
- TGI (OVCAR-5 ovarian): > 100 µM
- TGI (RXF 393 renal): 31.2 µM
- TGI (XF 498 CNS): 60.4 µM
- TGI (K-562 leukemia): > 100 µM
- TGI (SNB-75 CNS): 20.8 µM
- TGI (DMS 273 small cell lung): > 100 µM
- TGI (HCC-2998 colon): > 100 µM
- TGI (EKVX NSCLC): > 100 µM
- TGI (SF-539 CNS): 27.6 µM
- TGI (COLO 205 colon): > 100 µM
- TGI (CAKI-1 renal): 30 µM
- TGI (HT29 colon): > 100 µM
- TGI (UACC-257 melanoma): > 100 µM
- TGI (NCI-H23 lung): 50.2 µM
- TGI (CCRF-CEM leukemia): 94.4 µM
- TGI (ACHN renal): 42.8 µM
- TGI (NCI-H460 lung): > 100 µM
- TGI (LOX IMVI melanoma): > 100 µM
- TGI (MALME-3M melanoma): 75.1 µM
- TGI (M19-MEL melanoma): > 100 µM
